Consider three molecules from patent US4303592A (priority 1980, dated 1981).

The subject of data set [1] is chymotrypsin. As to the kind of experiment: inhibition of chymotrypsin by m-amidinophenylmethylsulfonylfluoride. Type of data set: biochemical. The conditions noted are these: 30 minutes, four-fold molar excess. The procedure: (§1) m-Amidinophenylmethylsulfonylfluoride was tested for inhibitory activity against bovine trypsin and chymotrypsin.
Data set [2] concerns the target T1, Trypsin (Bos taurus, UniProt P00760).
T1 sequence (P00760 24-246): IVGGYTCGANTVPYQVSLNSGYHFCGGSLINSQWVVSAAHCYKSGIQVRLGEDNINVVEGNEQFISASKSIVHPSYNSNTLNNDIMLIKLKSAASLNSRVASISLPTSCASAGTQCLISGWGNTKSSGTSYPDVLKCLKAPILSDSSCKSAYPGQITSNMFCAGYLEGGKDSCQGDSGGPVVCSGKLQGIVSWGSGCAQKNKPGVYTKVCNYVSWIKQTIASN
Briefly: inactivation of trypsin by meta amidinophenylmethylsulfonylfluoride. Type of data set: biochemical, bovine. The following applies: equimolar or greater amounts of reagent; FIG. 2. How it is done: as §1

The test system of data set [3] is chymotrypsin. Briefly: inhibition of bovine chymotrypsin. The following applies: neutral pH, approximately 10-fold excess of reagent over enzyme; FIG. 1. Type of data set: biochemical.
Another data set addresses T2, Cl-s (Homo sapiens, UniProt P09871).
T2 sequence (P09871 438-688 limits assumed): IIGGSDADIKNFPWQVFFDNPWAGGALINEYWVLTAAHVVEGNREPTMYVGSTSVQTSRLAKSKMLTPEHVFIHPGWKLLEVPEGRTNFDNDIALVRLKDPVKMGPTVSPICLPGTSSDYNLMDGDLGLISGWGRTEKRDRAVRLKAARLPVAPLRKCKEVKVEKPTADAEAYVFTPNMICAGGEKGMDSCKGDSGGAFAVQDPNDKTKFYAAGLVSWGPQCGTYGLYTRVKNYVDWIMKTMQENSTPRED
T2 sequence (P09871 16-437 partner limits assumed): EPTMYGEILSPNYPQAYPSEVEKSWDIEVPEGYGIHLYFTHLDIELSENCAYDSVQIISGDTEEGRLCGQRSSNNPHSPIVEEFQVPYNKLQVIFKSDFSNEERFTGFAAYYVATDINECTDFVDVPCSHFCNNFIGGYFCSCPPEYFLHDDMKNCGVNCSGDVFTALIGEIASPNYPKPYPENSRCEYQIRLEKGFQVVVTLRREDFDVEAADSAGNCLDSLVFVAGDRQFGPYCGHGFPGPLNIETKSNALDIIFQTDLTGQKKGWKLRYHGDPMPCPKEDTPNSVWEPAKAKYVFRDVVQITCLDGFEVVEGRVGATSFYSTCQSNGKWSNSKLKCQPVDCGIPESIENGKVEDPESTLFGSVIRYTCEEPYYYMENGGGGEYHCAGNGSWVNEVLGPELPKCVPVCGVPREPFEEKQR
Briefly: inhibition/inactivation of human Cls. The following applies: for % Activity Remaining: Cl-s 27.5 μM, PAPMSF 64 μM. Type of data set: biochemical.

Data set [4] relates to serine proteases. Briefly: reactivity of para versus meta form.
In another data set the test system is acetyl cholinesterase. As to the kind of experiment: inhibition of bovine acetyl cholinesterase.
For data set [5], the system named is serine proteases. As to the kind of experiment: serine protease inactivation by known inactivators (background). Type of data set: biochemical. The following applies: approximately 2:1 reagent:enzyme; Table 1.
A further data set deals with Cl-r. As to the kind of experiment: inhibition/inactivation of human Clr. Type of data set: biochemical.
Data set [6] deals with T1, Trypsin. As to the kind of experiment: inhibition/inactivation of bovine trypsin. It counts as biochemical. The conditions noted are these: for % Activity Remaining: Trypsin 60.6 μM, PAPMSF 127 μM.
Another data set concerns the target Thrombin (Homo sapiens, UniProt P00734). As to the kind of experiment: inhibition/inactivation of human thrombin. The following applies: for % Activity Remaining: Thrombin 74.5 μM, PAPMSF 159 μM. It counts as biochemical.
Data set [7] concerns chymotrypsin. The conditions noted are these: large excess with respect to enzyme; cited from earlier work.
Data set [8] relates to trypsin. The following applies: large excess with respect to enzyme; cited from earlier work.
[9] abbreviates: neutral pH, approximately 10-fold excess of reagent over enzyme, FIG. 1.

By solubility is commonly meant the concentration that dissolves in the medium under given conditions.

Structures are written as SMILES. Like-named read-outs stand apart in the source and are kept apart here. Some results are limits rather than exact numbers.

Turning to `N=C(N)c1cccc(CS(=O)(=O)F)c1` [MAPMSF, m-Amidinophenylmethylsulfonylfluoride], the loss of activity result in the data set on chymotrypsin [1] is on record as “no loss of activity”. The “inactivation (in words)” value at Trypsin [2] is given as “slowly inactivated”.
For `N=C(N)c1ccc(CS(=O)(=O)F)cc1` [PAPMSF, p-amidinophenylmethylsulfonylfluoride], the “inhibition (in words)” value in the data set with chymotrypsin [3] and in the data set with acetyl cholinesterase (setting [9]) was “not inhibited” each time. Also, the “% Activity Remaining” value is on record as 60% at Cl-s (1 min); 59% at Cl-s (5 min); 52% on Cl-s (10 min); 25% in the data set on Cl-r (Cl-r 4.8 μgm/ml, PAPMSF 130 μM, 10 min); 0% on Trypsin [6] (1 min); 0% on Trypsin [6] (5 min). The “% Activity Remaining” value on Trypsin [6] (10 min) is 0%; on Thrombin (1 min), 26%; at Thrombin (5 min), 24%; on Thrombin (10 min) it was 21%. Moreover, the “inactivation (in words)” value on Cl-s (setting [9]), in the data set on Cl-r (setting [9]), at Trypsin [6] (setting [9]) and on Thrombin (setting [9]) was “rapidly inactivated” in each case. Also, the “reactivity / activity relative to meta form” value in the data set with serine proteases [4] is recorded as “higher activity than the meta form”. Besides, the “reaction with acetyl cholinesterase (in words)” value in the data set with acetyl cholinesterase is listed as “does not react with acetyl cholinesterase”. For the same molecule, in the data set on acetyl cholinesterase (inferred from lack of reaction with acetyl cholinesterase), the “toxic properties compared with diisopropylfluorophosphate (in words)” value is listed as “does not have the toxic properties previously described for diisopropylfluorophosphate”. For the same molecule, in the data set with serine proteases [5], the “inhibition at lower concentrations (in words)” value is given as “still an effective inhibitor”. Further, the “stability in water at high pH” value in the data set “stability” (aqueous solutions above pH 8) was “can hydrolyze to sulfonic acid in water at high pH”. For the same molecule, the “stability in solution in organic solvents” value in “stability” (methanol, acetone, ethanol, dimethylsulfoxide, acetonitrile, dimethylformamide and the like) is “stable in solution in organic solvents”. In addition, the “stability of salts at physiological conditions” value in “stability” (pH and contact with aqueous based body fluids) is on record as “good stability at physiological conditions”. Further, on Trypsin [6] (dialysis of inactivated trypsin), the “recovery of enzymatic activity after dialysis (irreversibility)” value is recorded as “did not lead to recovery of enzymatic activity”. Moreover, the “rate of inactivation of trypsin, pH dependence” value at Trypsin [6] (pH 3.0, 5.0 or 7.4) is on record as “essentially unchanged”. For the same molecule, the solubility in “solubility in water” is at most 10 mM.
`O=S(=O)(F)Cc1ccccc1` [Phenylmethanesulfonylfluoride]: the “inhibition (in words)” value in the data set with chymotrypsin [7] is “inhibits both trypsin and chymotrypsin”; in the data set on trypsin [8] it was “inhibits both trypsin and chymotrypsin”.
